Reference: patent US20220241296A1, “PROCESS FOR THE PREPARATION OF STERILE OPHTHALMIC AQUEOUS FLUTICASONE PROPIONATE FORM A NANOCRYSTALS SUSPENSIONS” (NICOX OPHTHALMICS, INC., priority 2019, published 2022)
Several values for one entry are separate records, joined by “and”; a condition that tells them apart may be missing. Equal values may be shown once. Values belong to the compound of their own block, whether it stands above or below them.

What was measured:
[1] = Particle size distribution by laser diffraction (Horiba LA-950) during preparation; type: physicochemical; settings: for particle size (D50—median): materials used in the dissolution test
Method: The particle size of the isolated nanocrystals was evaluated using a laser scattering Particle size distribution analyzer (Horiba LA-950).
4000 g of vehicle 1 were introduced into a 10 L process vessel containing a stir bar, by filtration through a PES 0.2 μm media and were set aside for further use. In a 2 L beaker, 15.04 g of the fluticasone propionate Form A nanocrystals were introduced together with some vehicle 1. […] This concentrated slurry was subject to high-shear, high-speed mixing at 6000±10 RPM for 10 minutes and the particle size distribution was tested by laser diffraction on a Horiba LA-950S2 PSD analyzer.
The 1% w/w fluticasone propionate Form A nanocrystals slurry was subject to high-shear, high-speed mixing at 6000±10 RPM for 10 minutes and the particle size distribution was tested by laser diffraction using a Horiba LA-95052 PSD analyzer.
The particle size distribution was tested by laser diffraction using a Horiba LA-950S2 PSD analyzer.

[2] = In vitro dissolution test (compartment diffusion through dialysis membrane, sink condition); type: physicochemical
Method: The dissolution rate of the Fluticasone propionate form A nanocrystals of the nanosuspension of the invention was assessed and compared to the dissolution rate of a standard Fluticasone propionate form 1 micronized material (reference sample). Dissolution profiles of nanocrystals of Fluticasone propionate form A of two nanosuspensions of the invention and of Fluticasone propionate form 1 micronized were performed using a dissolution method. The study was performed using a compartment diffusion analysis through a dialysis membrane and sink condition. The sink condition was achieved through the use of a receptor fluid containing 30 mM phosphate buffer, pH 7.4 with 5% HPβCD cyclodextrins and also by a complete replacement of the buffer every 24 hours to stay below the saturation point. The saturation point was estimated to be 5 μg/g under those experimental conditions and the measurements performed as well as the buffer replacement have shown a maximum concentration of 1.5 μg/g. The study was conducted at a temperature of 37° C. The details of the dissolution test method are provided below: A 5-fold dilution with the formulation vehicle (placebo solution containing all the formulation excipients including the surfactants) of two 0.1% w/w Fluticasone propionate form A nanosuspensions was conducted to obtain a final concentration of 0.02% w/w Fluticasone propionate inside the dialysis device. Fluticasone propionate form 1 micronized was suspended in the same phosphate buffer used in the receiving compartment of the dialysis system. Fluticasone propionate release was carried at 1-2 RPM. […] These aliquots were immediately centrifuged and the measurements were performed by HPLC

[3] = 14-day repeated dose toxicokinetic study, topical application to eyelid margin; parameters: species or system Beagle dogs; settings: dog, in vivo; for Cmax / Tmax / AUC(0-t) / AUC0-24 h: Beagle, topical or ocular; for AUC(0-t): AUC0-24 h
Source text: The purpose of this study was to evaluate the toxicokinetic of fluticasone propionate Form A nanosuspensions of the invention (see Table 10 below) administered via topical application directly to the rim (margin) of upper and lower eyelids of both eyes of Beagle dogs.
Fifty naïve Beagle dogs (25 males and 25 females), approximately 5-6 months old and weighing 5.7 to 8.8 kg for males and females at the outset of the study were assigned to treatment groups (groups 1-4) and to vehicle group.
Male and female Beagle dogs were dosed with fluticasone propionate at 1.6, 9.6, and 32 μg/day (bilateral QD topical application) or at 64 μg/day (bilateral BID topical application) via eye lid applicator directly to the upper and lower eyelids of both eyes once or twice daily (minimum of 6 hours between doses) for 14 consecutive days.
Blood for toxicokinetic evaluation was collected from all animals at selected time points on Days 1 and 14.
Ophthalmology examinations were performed prior to treatment initiation, during the first and second weeks of dosing and during the last week of recovery. Eyes were scored once daily according to the modified Draize scale.
The reversibility of the effects of Fluticasone Propionate nanosuspension was assessed with a 14-day recovery period.

[4] = particle size at preparation, Horiba LA-950
[5] = time point 3 h, 37° C., listed as Fluticasone propionate form A nanocrystals
[6] = time point 5 h, 37° C., listed as Fluticasone propionate form A nanocrystals
[7] = time point 19 h, 37° C., listed as Fluticasone propionate form A nanocrystals
[8] = time point 24 h, 37° C., listed as Fluticasone propionate form A nanocrystals
[9] = time point 48 h, 37° C., listed as Fluticasone propionate form A nanocrystals
[10] = time point 72 h, 37° C., listed as Fluticasone propionate form A nanocrystals

particle size (D50—median) [1]: 0.434 μm
D50 [1, 4]: 0.2153 μm
D90 [1, 4]: 0.6073 μm
dissolution profile compared with Fluticasone propionate form 1 micronized material ([2]; despite different particle size): similar
% Dissolution Average % ([2]; time point 1 h, 37° C.): 0.0%
% Dissolution Tube #1 ([2]; time point 1 h, 37° C.): 0.0%
% Dissolution Tube #2 ([2]; time point 1 h, 37° C.): 0.0%
% Dissolution Tube #3 ([2]; time point 1 h, 37° C.): 0.0%
% Dissolution Average % [2, 5]: 0.8% and 0.7%
% Dissolution Tube #1 [2, 5]: 0.2% and 0.6%
% Dissolution Tube #2 [2, 5]: 1.4% and 0.5%
% Dissolution Tube #3 [2, 5]: 0.7% and 0.8%
% Dissolution Average % [2, 6]: 2.2% and 2.3%
% Dissolution Tube #1 [2, 6]: 1.3% and 2.4%
% Dissolution Tube #2 [2, 6]: 2.8% and 2.0%
% Dissolution Tube #3 [2, 6]: 2.4% and 2.6%
% Dissolution Average % [2, 7]: 17.8% and 19.0%
% Dissolution Tube #1 [2, 7]: 14.5% and 19.0%
% Dissolution Tube #2 [2, 7]: 20.4% and 18.2%
% Dissolution Tube #3 [2, 7]: 18.7% and 19.7%
% Dissolution Average % [2, 8]: 21.3% and 22.4%
% Dissolution Tube #1 [2, 8]: 17.5% and 22.4%
% Dissolution Tube #2 [2, 8]: 24.0% and 21.5%
% Dissolution Tube #3 [2, 8]: 22.4% and 23.2%
% Dissolution Average % [2, 9]: 46.2% and 48.5%
% Dissolution Tube #1 [2, 9]: 38.7% and 49.1%
% Dissolution Tube #2 [2, 9]: 51.4% and 45.6%
% Dissolution Tube #3 [2, 9]: 48.6% and 50.9%
% Dissolution Average % [2, 10]: 70.5% and 73.9%
% Dissolution Tube #1 [2, 10]: 59.6% and 75.1%
% Dissolution Tube #2 [2, 10]: 78.1% and 69.1%
% Dissolution Tube #3 [2, 10]: 74.0% and 77.7%
SMILES: CCC(=O)O[C@]1(C(=O)SCF)[C@H](C)C[C@H]2[C@@H]3C[C@H](F)C4=CC(=O)C=C[C@]4(C)[C@@]3(F)[C@@H](O)C[C@@]21C [fluticasone propionate]

saturation point ([2]; receptor fluid: 30 mM phosphate buffer, pH 7.4 with 5% HPβCD, 37° C.): ~5 µg/g
SMILES: CCC(=O)O[C@]1(C(=O)SCF)[C@H](C)C[C@H]2[C@@H]3C[C@H](F)C4=CC(=O)C=C[C@]4(C)[C@@]3(F)[C@@H](O)C[C@@]21C [Fluticasone Propionate, fluticasone propionate]
Cmax ([3]; both sexes, 1.6 ug/day, Cmax): 0.0281 ± 0.0266 ng/mL
Tmax ([3]; both sexes, 1.6 ug/day, Tmax): 45 min
AUC(0-t) ([3]; both sexes, 9.6 ug/day): 0.191 ± 0.335 ng·h/mL
Cmax ([3]; both sexes, 9.6 ug/day, Cmax): 0.0608 ± 0.0487 ng/mL
Tmax ([3]; both sexes, 9.6 ug/day, Tmax): 30 min
AUC(0-t) ([3]; both sexes, 32 ug/day): 0.481 ± 0.361 ng·h/mL
Cmax ([3]; both sexes, 32 ug/day, Cmax): 0.13 ± 0.155 ng/mL
Tmax ([3]; both sexes, 32 ug/day, Tmax): 30 min
AUC(0-t) ([3]; both sexes, 64 ug/day): 0.914 ± 0.413 ng·h/mL
Cmax ([3]; both, 1.6 ug/day): 0.0324 ± 0.0264 ng/mL
Tmax ([3]; both, 1.6 ug/day): 30 min
AUC0-24 h ([3]; both, 9.6 ug/day): 101 ± 102 pg·h/mL
Cmax ([3]; both, 9.6 ug/day): 0.0798 ± 0.07 ng/mL
Tmax ([3]; both, 9.6 ug/day): 30 min
AUC0-24 h ([3]; both, 32 ug/day): 482 ± 407 pg·h/mL
Cmax ([3]; both, 32 ug/day): 0.25 ± 0.219 ng/mL
Tmax ([3]; both, 32 ug/day): 30 min
AUC0-24 h ([3]; both, 64 ug/day): 760 ± 188 pg·h/mL
exposure versus dose [3]: dose-dependent
gender-related differences in exposure [3]: no discernable gender-related differences in exposure

particle size (D50—median) ([1]; listed as Fluticasone propionate form 1 micronized material): 4.64 μm
particle size (D50—median) ([1]; listed as micronized Fluticasone propionate form 1): 4.64 μm
% Dissolution Average % ([2]; time point 3 h, 37° C.): 0.7%
% Dissolution Tube #1 ([2]; time point 3 h, 37° C.): 0.8%
% Dissolution Tube #2 ([2]; time point 3 h, 37° C.): 0.5%
% Dissolution Tube #3 ([2]; time point 3 h, 37° C.): 0.9%
% Dissolution Average % ([2]; time point 5 h, 37° C.): 2.6%
% Dissolution Tube #1 ([2]; time point 5 h, 37° C.): 2.9%
% Dissolution Tube #2 ([2]; time point 5 h, 37° C.): 1.9%
% Dissolution Tube #3 ([2]; time point 5 h, 37° C.): 3.0%
% Dissolution Average % ([2]; time point 19 h, 37° C.): 19.4%
% Dissolution Tube #1 ([2]; time point 19 h, 37° C.): 20.9%
% Dissolution Tube #2 ([2]; time point 19 h, 37° C.): 17.1%
% Dissolution Tube #3 ([2]; time point 19 h, 37° C.): 20.3%
% Dissolution Average % ([2]; time point 24 h, 37° C.): 22.6%
% Dissolution Tube #1 ([2]; time point 24 h, 37° C.): 24.2%
% Dissolution Tube #2 ([2]; time point 24 h, 37° C.): 20.2%
% Dissolution Tube #3 ([2]; time point 24 h, 37° C.): 23.5%
% Dissolution Average % ([2]; time point 48 h, 37° C.): 48.6%
% Dissolution Tube #1 ([2]; time point 48 h, 37° C.): 51.1%
% Dissolution Tube #2 ([2]; time point 48 h, 37° C.): 44.0%
% Dissolution Tube #3 ([2]; time point 48 h, 37° C.): 50.6%
% Dissolution Average % ([2]; time point 72 h, 37° C.): 73.4%
% Dissolution Tube #1 ([2]; time point 72 h, 37° C.): 77.4%
% Dissolution Tube #2 ([2]; time point 72 h, 37° C.): 66.7%
% Dissolution Tube #3 ([2]; time point 72 h, 37° C.): 76.2%
SMILES: CCC(=O)O[C@]1(C(=O)SCF)[C@H](C)C[C@H]2[C@@H]3C[C@H](F)C4=CC(=O)C=C[C@]4(C)[C@@]3(F)[C@@H](O)C[C@@]21C [Micronized Fluticasone propionate form 1, fluticasone propionate]
